The source made the active and inactive calls. The rule behind the calls is not given here.
Key:
DU-145 [1] = assay: Cytotoxicity against human DU-145 cells assessed as cell growth inhibition for 72 hrs by MTT assay; assay type: functional
A549 = assay: Cytotoxicity against human A549 cells assessed as cell growth inhibition for 72 hrs by MTT assay; assay type: functional
[2] = biological target: T1, Tyrosyl-DNA phosphodiesterase 2 (Homo sapiens, UniProt O95551); assay: Inhibition of N-terminal His-tagged human TDP2 expressed in Escherichia coli BL21 using 4-nitrophenyl phenylphosphonate as substrate incubated for 60 mins by EDTA based chromogenic assay
T1 sequence (O95551 whole entry): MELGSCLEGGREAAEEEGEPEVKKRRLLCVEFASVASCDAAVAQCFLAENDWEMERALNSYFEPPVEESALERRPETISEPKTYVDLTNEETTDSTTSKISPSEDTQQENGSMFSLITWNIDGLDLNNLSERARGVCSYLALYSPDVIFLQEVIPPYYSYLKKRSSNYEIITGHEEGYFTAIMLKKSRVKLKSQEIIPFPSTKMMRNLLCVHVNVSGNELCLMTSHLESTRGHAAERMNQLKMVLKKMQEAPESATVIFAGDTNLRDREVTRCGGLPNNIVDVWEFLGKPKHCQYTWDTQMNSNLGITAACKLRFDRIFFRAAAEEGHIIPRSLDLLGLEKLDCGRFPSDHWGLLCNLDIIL

[3] = Induction of reactive oxygen species production assessed as increase in hydrogen peroxide production […] in presence of DTT by redox cycling assay; assay type: functional
DU-145 [4] = assay: Cytotoxicity against human DU-145 cells assessed as cell growth inhibition at 10 uM for 72 hrs by MTT assay; assay type: functional

Compound	IC50 [2]	GI50 (DU-145 [1]; Homo sapiens, DU-145, 72 h)	GI50 (A549; Homo sapiens, A549, 72 h)	Activity [3]	inhibition at 10 µM (DU-145 [4])	GI50 (DU-145 [1]; 72 h)	GI50 (A549; 72 h)
COc1c(C(=O)C(C)C)c2c(c3c1[C@@H](C(C)C)C1=C(O3)C(C)(C)C(=O)C(C)(C)C1=O)[C@H](C(C)C)C1=C(O2)C(C)(C)C(=O)C(C)(C)C1=O (racemic)	55 µM	13 µM	31 µM				
CC(C)[C@@H]1C2=C(Oc3c1c(OCCCN1CCCC1)cc1c3[C@@H](C(C)C)C3=C(O1)C(C)(C)C(=O)C(C)(C)C3=O)C(C)(C)C(=O)C(C)(C)C2=O	19 µM	38 µM	50 µM				
CC(C)[C@@H]1C2=C(Oc3c1c(OCCN1CCOCC1)cc1c3[C@@H](C(C)C)C3=C(O1)C(C)(C)C(=O)C(C)(C)C3=O)C(C)(C)C(=O)C(C)(C)C2=O	25 µM	27 µM	39.6 µM				
Cc1ccc(COc2cc3c(c4c2[C@H](C(C)C)C2=C(O4)C(C)(C)C(=O)C(C)(C)C2=O)[C@@H](C(C)C)C2=C(O3)C(C)(C)C(=O)C(C)(C)C2=O)cc1	31 µM	15 µM	29 µM				
CC1(C)CCC2=C(O1)c1ccccc1C(=O)C2=O				Active			
CC(C)[C@@H]1C2=C(Oc3c1c(OCCCN1CCOCC1)cc1c3[C@@H](C(C)C)C3=C(O1)C(C)(C)C(=O)C(C)(C)C3=O)C(C)(C)C(=O)C(C)(C)C2=O	20 µM	26 µM	65.7 µM				
CC(C)[C@@H]1C2=C(Oc3c1c(OCc1ccccc1)cc1c3[C@@H](C(C)C)C3=C(O1)C(C)(C)C(=O)C(C)(C)C3=O)C(C)(C)C(=O)C(C)(C)C2=O	54 µM	19 µM	36 µM				
CC(COc1cc2c(c3c1[C@H](C(C)C)C1=C(O3)C(C)(C)C(=O)C(C)(C)C1=O)[C@@H](C(C)C)C1=C(O2)C(C)(C)C(=O)C(C)(C)C1=O)CN(C)C (some centres not stated)	12 µM	28 µM	46 µM				
CC(C)[C@@H]1C2=C(Oc3c1c(OCCC1OCCO1)cc1c3[C@@H](C(C)C)C3=C(O1)C(C)(C)C(=O)C(C)(C)C3=O)C(C)(C)C(=O)C(C)(C)C2=O	17 µM	12 µM	21 µM				
COc1cc([C@@H]2c3cc4c(cc3[C@@H](O[C@@H]3O[C@@H]5CO[C@@H](C)O[C@H]5[C@H](O)[C@H]3O)[C@H]3COC(=O)[C@H]23)OCO4)cc(OC)c1O [ETOPOSIDE]		13 µM	10 µM		47%		
CC(C)C(=O)c1c(O)c2c(c3c1OC1=C(C(=O)C(C)(C)C(=O)C1(C)C)[C@H]3C(C)C)OC1=C(C(=O)C(C)(C)C(=O)C1(C)C)[C@@H]2C(C)C (racemic)	41 µM					17 µM	26 µM
CCOC(CCCOc1cc2c(c3c1[C@H](C(C)C)C1=C(O3)C(C)(C)C(=O)C(C)(C)C1=O)[C@@H](C(C)C)C1=C(O2)C(C)(C)C(=O)C(C)(C)C1=O)OCC	41 µM	27 µM	62 µM				
CC(C)[C@@H]1C2=C(Oc3c1c(OCCN1CCCC1)cc1c3[C@@H](C(C)C)C3=C(O1)C(C)(C)C(=O)C(C)(C)C3=O)C(C)(C)C(=O)C(C)(C)C2=O	22 µM	22 µM	46 µM				
CC(C)C(=O)c1c(O)c2c(c3c1OC1=C(C(=O)C(C)(C)C(=O)C1(C)C)[C@H]3C(C)C)OC1=C(C(=O)C(C)(C)C(=O)C1(C)C)[C@@H]2C(C)C	50 µM					41 µM	60 µM
CCN(CC)CCOc1cc2c(c3c1[C@H](C(C)C)C1=C(O3)C(C)(C)C(=O)C(C)(C)C1=O)[C@@H](C(C)C)C1=C(O2)C(C)(C)C(=O)C(C)(C)C1=O	53 µM	23 µM	46 µM				
COc1c(C(=O)C(C)C)c2c(c3c1[C@@H](C(C)C)C1=C(O3)C(C)(C)C(=O)C(C)(C)C1=O)[C@@H](C(C)C)C1=C(O2)C(C)(C)C(=O)C(C)(C)C1=O (racemic)	57 µM	20 µM	32 µM				
COc1cc(O)c2c(c1C(=O)C(C)C)OC1=C(C(=O)C(C)(C)C(=O)C1(C)C)[C@@H]2C(C)C	> 100 µM	28 µM	50 µM				
CCN(CC)CCCOc1cc2c(c3c1[C@H](C(C)C)C1=C(O3)C(C)(C)C(=O)C(C)(C)C1=O)[C@@H](C(C)C)C1=C(O2)C(C)(C)C(=O)C(C)(C)C1=O	20 µM	25 µM	85 µM				
CC(C)[C@@H]1C2=C(Oc3c1c(OCCCc1ccccc1)cc1c3[C@@H](C(C)C)C3=C(O1)C(C)(C)C(=O)C(C)(C)C3=O)C(C)(C)C(=O)C(C)(C)C2=O	26 µM	29 µM	43 µM				
CC(C)C(=O)c1c(O)c2c(c3c1OC1=C(C(=O)C(C)(C)C(=O)C1(C)C)[C@@H]3C(C)C)OC1=C(C(=O)C(C)(C)C(=O)C1(C)C)[C@@H]2C(C)C	48 µM					15 µM	28 µM
CC(C)C(=O)c1c(O)c2c(c3c1OC1=C(C(=O)C(C)(C)C(=O)C1(C)C)[C@@H]3C(C)C)OC1=C(C(=O)C(C)(C)C(=O)C1(C)C)[C@H]2C(C)C	39 µM	31 µM	62 µM				
CC(C)C(=O)c1c(O)c2c(c3c1OC1=C(C(=O)C(C)(C)C(=O)C1(C)C)[C@H]3C(C)C)OC1=C(C(=O)C(C)(C)C(=O)C1(C)C)[C@H]2C(C)C	32 µM	38 µM	65 µM				
CC(C)C(=O)c1c(O)c2c(c3c1OC1=C(C(=O)C(C)(C)C(=O)C1(C)C)[C@@H]3C(C)C)OC1=C(C(=O)C(C)(C)C(=O)C1(C)C)[C@@H]2C(C)C (racemic)	33 µM	26 µM	37 µM				
COc1cc(O)c2c(c1C(=O)C(C)C)OC1=C(C(=O)C(C)(C)C(=O)C1(C)C)[C@H]2C(C)C	> 100 µM	16 µM	30 µM				
COc1ccc(COc2cc3c(c4c2[C@H](C(C)C)C2=C(O4)C(C)(C)C(=O)C(C)(C)C2=O)[C@@H](C(C)C)C2=C(O3)C(C)(C)C(=O)C(C)(C)C2=O)cc1	56 µM	40 µM	32 µM				
CC(C)[C@@H]1C2=C(Oc3c1c(OCCCN1CCN(C)CC1)cc1c3[C@@H](C(C)C)C3=C(O1)C(C)(C)C(=O)C(C)(C)C3=O)C(C)(C)C(=O)C(C)(C)C2=O	20 µM	51 µM	63 µM				

More lines, main results first:

IC50 [2]	Compound	GI50 (DU-145 [1]; Homo sapiens, DU-145, 72 h)	GI50 (A549; Homo sapiens, A549, 72 h)	Activity [3]	inhibition at 10 µM (DU-145 [4])	GI50 (DU-145 [1]; 72 h)	GI50 (A549; 72 h)
26 µM	CC(C)CCOc1cc2c(c3c1[C@H](C(C)C)C1=C(O3)C(C)(C)C(=O)C(C)(C)C1=O)[C@@H](C(C)C)C1=C(O2)C(C)(C)C(=O)C(C)(C)C1=O	19 µM	37 µM				
10 µM	CC(C)[C@@H]1C2=C(Oc3c1c(OCCCN(C)C)cc1c3[C@@H](C(C)C)C3=C(O1)C(C)(C)C(=O)C(C)(C)C3=O)C(C)(C)C(=O)C(C)(C)C2=O	23 µM	46 µM				
36 µM	CC(C)[C@@H]1C2=C(Oc3c1c(O)cc1c3[C@H](C(C)C)C3=C(O1)C(C)(C)C(=O)C(C)(C)C3=O)C(C)(C)C(=O)C(C)(C)C2=O	26 µM	56 µM				
21 µM	CCOc1cc2c(c3c1[C@H](C(C)C)C1=C(O3)C(C)(C)C(=O)C(C)(C)C1=O)[C@@H](C(C)C)C1=C(O2)C(C)(C)C(=O)C(C)(C)C1=O	12 µM	24 µM				
32 µM	CC(C)[C@H]1C2=C(Oc3c1c(O)cc1c3[C@@H](C(C)C)C3=C(O1)C(C)(C)C(=O)C(C)(C)C3=O)C(C)(C)C(=O)C(C)(C)C2=O	16 µM	38 µM				
11 µM	CC(C)[C@@H]1C2=C(Oc3c1c(OCCN(C)C)cc1c3[C@@H](C(C)C)C3=C(O1)C(C)(C)C(=O)C(C)(C)C3=O)C(C)(C)C(=O)C(C)(C)C2=O	22 µM	54 µM				
32 µM	CC(C)C1C2=C(Oc3c1c(O)cc1c3C(C(C)C)C3=C(O1)C(C)(C)C(=O)C(C)(C)C3=O)C(C)(C)C(=O)C(C)(C)C2=O (racemic; form 2)					15 µM	44 µM
34 µM	CC(C)[C@@H]1C2=C(Oc3cc(O)c4c(c31)OC1=C(C(=O)C(C)(C)C(=O)C1(C)C)[C@@H]4C(C)C)C(C)(C)C(=O)C(C)(C)C2=O	28 µM	32 µM				
28 µM	CC(C)Oc1cc2c(c3c1[C@H](C(C)C)C1=C(O3)C(C)(C)C(=O)C(C)(C)C1=O)[C@@H](C(C)C)C1=C(O2)C(C)(C)C(=O)C(C)(C)C1=O	20 µM	33 µM				
42 µM	CC(C)[C@@H]1C2=C(Oc3c1c(OCC1CC1)cc1c3[C@@H](C(C)C)C3=C(O1)C(C)(C)C(=O)C(C)(C)C3=O)C(C)(C)C(=O)C(C)(C)C2=O	13 µM	24 µM				
29 µM	CC(C)C1C2=C(Oc3c1c(O)cc1c3C(C(C)C)C3=C(O1)C(C)(C)C(=O)C(C)(C)C3=O)C(C)(C)C(=O)C(C)(C)C2=O (racemic; form 1)	13 µM	26 µM				
25 µM	CC(C)[C@@H]1C2=C(Oc3c1c(O)cc1c3[C@@H](C(C)C)C3=C(O1)C(C)(C)C(=O)C(C)(C)C3=O)C(C)(C)C(=O)C(C)(C)C2=O	23 µM	27 µM				
